Bounds are passed on as bounds.

The record followed here is ChEMBL document CHEMBL1128993, “Optimization of retro-thiorphan for inhibition of endothelin converting enzyme” (Bioorg Med Chem Lett, 1996).

The subject of one test is Endothelin-converting enzyme 1 (Sus scrofa). Briefly: Inhibition of endothelin-converting enzyme 1 partially purified from porcine primary aortic endothelial cells at 20 uM. Conditions: Endothelial cell.
One may read the inhibition as the change of the read-out against control, counted positive when it falls. Low values mean little suppression, high ones strong suppression. As for `O=C(N[C@@H](CS)Cc1ccccc1)c1nccc2ccccc12`, the inhibition turned out to be 36%.
On the same count and under the same terms, as for `O=C(N[C@H](Cc1c[nH]c2ccccc12)C(=O)NCCS)c1cccnc1`, the figure is > 20%.
As to `O=C(CCC(C(=O)O)c1ccccc1)N[C@@H](CS)Cc1ccccc1` (some centres undefined), the inhibition was 48%.
In turn, `O=C(N[C@@H](CS)Cc1ccccc1)C1Cc2ccccc2CN1` (some centres undefined) returned an inhibition of 33%.
The same measure, in the same setting: with `O=C(CCc1ccccc1Cl)N[C@@H](CS)Cc1ccccc1` the figure was 57%; with `O=C(Cc1ccc(OCc2ccccc2)cc1)N[C@H](Cc1c[nH]c2ccccc12)C(=O)N1CCC[C@@H]1CS`, > 20%; with `O=C(N[C@@H](CS)Cc1ccccc1)/C(=C/c1ccccc1)c1ccccc1`, 23%.
Consider `O=C(N[C@@H](CS)Cc1ccccc1)[C@@H]1CCCN1`, for which the inhibition is 0%.
`O=C(Cc1ccc(-c2ccccc2)cc1)N[C@@H](CS)Cc1ccccc1` gave an inhibition of 74%.
Regarding `O=C(CCc1cccnc1)N[C@@H](CS)Cc1ccccc1`, the inhibition came out at 66%.
The compound `O=C(Cc1ccccc1)N[C@@H](CS)Cc1ccc(OCc2ccccc2)cc1` yielded an inhibition of 15%.
As to `O=C(N[C@@H](CS)Cc1ccccc1)c1ccco1`, the inhibition is 54%.
Regarding `O=C(N[C@@H](CS)Cc1ccccc1)c1cccs1`, the inhibition was found to be 67%.
With `CC(C)[C@H](CS)NC(=O)c1cccnc1`, the inhibition came to 30%.
`O=C(Cc1ccc(OCc2ccccc2)cc1)N[C@@H](CS)Cc1ccc2ccccc2c1` had an inhibition of 10%.
`O=C(CCc1ccccc1)N[C@@H](CS)Cc1ccccc1` had an inhibition of 49%.
Compound `CN(C(=O)Cc1ccccc1)[C@@H](CS)Cc1ccccc1` registered an inhibition of 24%.
For `O=C(N[C@@H](CS)Cc1ccccc1)c1cc2ccccc2cn1`, the inhibition is 76%.
`O=C(Cc1ccc(-c2ccccc2)cc1)N[C@@H](CS)CCc1ccccc1` had an inhibition of 16%.
`CC(C)C[C@H](CS)NC(=O)c1cccnc1` returned an inhibition of 21%.
`O=C(Cc1cccnc1)N[C@@H](CS)Cc1ccccc1` had an inhibition of 58%.
Same read-out and setting: with `O=C(Cc1ccc(OCc2ccccc2)cc1)N[C@@H](CS)Cc1ccc(-c2cccc3ccccc23)cc1` the figure was 0%; with `O=C(Cc1ccccc1)N[C@@H](CS)Cc1ccc(O)cc1`, 56%.
`O=C(N[C@@H](CS)Cc1ccccc1)c1ccncc1` gave an inhibition of 48%.
Same read-out and setting: as for `Cn1cc(C[C@H](CS)NC(=O)Cc2ccc(-c3ccccc3)cc2)c2ccccc21`, the figure is 68%; as for `O=C(Cc1ccc(OCc2ccccc2)cc1)N[C@@H](CS)Cc1cccc2ccccc12`, 51%; as for `O=C(N[C@@H](CS)Cc1ccccc1)c1c[nH]c2ccccc12`, 67%.
In turn, `O=C(N[C@@H](CS)Cc1ccccc1)c1ccccn1` showed an inhibition of 52%.
`O=C(N[C@@H](CS)Cc1ccc(-c2ccccc2)cc1)c1cccnc1` came in with an inhibition of 39%.
On to `O=C(CCc1ccccc1O)N[C@@H](CS)Cc1ccccc1`, for which the inhibition came out at 58%.
As to `O=C(Cc1ccccc1)N[C@@H](CS)Cc1ccccc1`, the inhibition worked out at 58%.
The same measure, in the same setting: as for `O=C(Cc1ccc(OCc2ccccc2)cc1)N[C@@H](CCS)Cc1c[nH]c2ccccc12`, the figure is > 20%; as for `O=C(Cc1ccc(-c2ccccc2)cc1)N[C@@H](CS)Cc1cccnc1`, 91%.

Another test has the same test system. Briefly: Compound was evaluated for inhibition of Endothelin converting enzyme-1 partially purified from porcine primary aortic endothelial cells at 20 uM. As to conditions: Endothelial cell.
As to `O=C(Cc1ccccc1OCc1ccccc1)N[C@@H](CS)Cc1ccccc1`, the inhibition was found to be 63%.
